Measured values taken from patent US20220056019A1, “FARNESOID X RECEPTOR AGONISTS AND USES THEREOF” (Metacrine, Inc., priority 2018, published 2022).

Biological target: T1, hFXR (Homo sapiens, UniProt Q96RI1)
T1 construct: expressed in transfected cells; host or cells: CV-1 cells
T1 sequence (Q96RI1 1-486): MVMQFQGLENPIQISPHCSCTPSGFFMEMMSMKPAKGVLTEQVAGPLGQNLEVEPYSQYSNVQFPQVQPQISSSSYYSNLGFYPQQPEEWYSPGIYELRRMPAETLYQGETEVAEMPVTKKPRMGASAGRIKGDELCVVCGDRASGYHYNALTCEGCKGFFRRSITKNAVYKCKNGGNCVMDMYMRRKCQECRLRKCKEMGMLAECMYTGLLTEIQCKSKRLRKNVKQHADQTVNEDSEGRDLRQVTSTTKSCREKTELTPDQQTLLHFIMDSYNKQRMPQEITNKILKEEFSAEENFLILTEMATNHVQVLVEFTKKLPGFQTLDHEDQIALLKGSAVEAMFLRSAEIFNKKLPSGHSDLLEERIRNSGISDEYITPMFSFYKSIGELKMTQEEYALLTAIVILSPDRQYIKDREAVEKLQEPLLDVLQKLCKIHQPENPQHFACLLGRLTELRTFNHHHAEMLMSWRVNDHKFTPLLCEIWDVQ
T1 sequence (P19793 1-462 partner): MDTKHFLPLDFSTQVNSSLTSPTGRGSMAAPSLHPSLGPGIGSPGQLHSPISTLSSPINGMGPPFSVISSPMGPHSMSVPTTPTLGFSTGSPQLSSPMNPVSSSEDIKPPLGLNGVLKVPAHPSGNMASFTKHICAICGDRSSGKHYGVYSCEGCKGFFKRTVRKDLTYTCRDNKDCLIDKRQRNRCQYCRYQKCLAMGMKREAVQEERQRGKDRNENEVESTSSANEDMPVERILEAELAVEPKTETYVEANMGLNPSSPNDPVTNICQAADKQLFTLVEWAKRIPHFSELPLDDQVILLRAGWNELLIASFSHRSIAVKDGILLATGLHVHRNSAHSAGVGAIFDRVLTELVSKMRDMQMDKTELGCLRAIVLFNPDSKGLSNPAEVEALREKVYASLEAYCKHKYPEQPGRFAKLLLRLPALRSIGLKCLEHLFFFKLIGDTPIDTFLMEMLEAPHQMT
Experiment: In Vitro FXR Assay (TK): TK-ECRE-luc reporter in transfected CV-1 cells
Type: cell-based
Details: 18 hrs incubation, luminescence
Outline: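 Transactivation is scored as luminescence in CV-1 cell lysates. The cells, co-transfected with hFXR/hRXR and a TK-ECRE-luc reporter, are exposed to DMSO-diluted compounds for 18 h.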

Question: Which EC50 does the source give for COc1ccc(C23CCC(CN(c4cncc(-c5cnn(C6(C)CCC6)c5)c4)C(=O)[C@H]4CC[C@H](OC(=O)N5CC(O)C5)CC4)(CC2)CC3)cc1C [Compound 25.22, 4-(((4-(4-Methoxy-3-methylphenyl)bicyclo[2.2.2]octan-1-yl)methyl)(5-(1-(1-methylcyclobutyl)-1H-pyrazol-4-yl)pyridin-3-yl)carbamoyl)cyclohexyl trans-3-hydroxyazetidine-1-carboxylate] here?
Answer: ≤ 50 nM

Question: How did the EC50 turn out when COc1ccc([C@H]2CC[C@H](CN(c3cccc(-c4cnn(C(C)C)c4)c3)C(=O)[C@H]3CC[C@H](NC(=O)CC4CCOCC4)CC3)CC2)cc1C [Compound 10.03, trans-N-(3-(1-Isopropyl-1H-pyrazol-4-yl)phenyl)-N-((trans-4-(4-methoxy-3-methylphenyl)cyclohexyl)methyl)-4-(2-(tetrahydro-2H-pyran-4-yl)acetamido)cyclohexanecarboxa-mide] was run?
Answer: 50 to 1000 nM

Question: CCOC(=O)NC[C@H]1CC[C@H](C(=O)N(C[C@H]2CC[C@H](c3ccc(OC)c(C)c3)CC2)c2cccc(-c3cnn(C(C)C)c3)c2)CC1 [Compound 12.03, Ethyl (((trans)-4-((3-(1-isopropyl-1H-pyrazol-4-yl)phenyl)(((trans)-4-(4-methoxy-3-methylphenyl)cyclohexyl)methyl)carbamoyl)cyclohexyl)methyl)car-bamate] was tested. Which EC50 did it give?
Answer: 50 to 1000 nM

Question: Which EC50 does the source give for COc1ccc([C@H]2CC[C@H](CN(c3cc(-c4cnn(C(C)C)c4)ccn3)C(=O)[C@H]3CC[C@H](OC(=O)NCC(C)(C)CO)CC3)CC2)nc1C [Compound 1.02, trans-4-((4-(1-Isopropyl-1H-pyrazol-4-yl)pyridin-2-yl) ((trans-4-(5-methoxy-6-methylpyridin-2-yl)cyclohexyl)methyl)carbamoyl) cyclohexyl (3-hydroxy-2,2-dimethylpropyl)carbamate] here?
Answer: ≤ 50 nM

Question: Which EC50 does the source give for COc1ccc(C23CCC(CN(c4cc(-c5cnc(C6CC6)s5)ccn4)C(=O)[C@H]4CC[C@H](NC(C)=O)CC4)(CC2)CC3)cc1C [Compound 9.06, (trans)-4-Acetamido-N-(4-(2-cyclopropylthiazol-5-yl)pyridin-2-yl)-N-((4-(4-methoxy-3-methylphenyl)bicyclo[2.2.2]octan-1-yl)methyl)cyclohexanecarboxamide] here?
Answer: ≤ 50 nM

Question: With CCOC(=O)N[C@H]1CC[C@H](C(=O)N(C[C@H]2CC[C@H](c3ccc(OC)c(C)c3)CC2)c2cccc(-c3cnn(C(C)C)c3)c2)CC1 [Compound 6.01, Ethyl (trans-4-((3-(1-isopropyl-1H-pyrazol-4-yl)phenyl)((trans-4-(4-methoxy-3-methylphenyl)cyclohexyl)meth-yl)carbamoyl)cyclohexyl)carbamate] as the molecule, how does the EC50 read?
Answer: ≤ 50 nM

Question: How did the EC50 turn out when COc1ncc([C@H]2CC[C@H](CN(c3cc(-c4cnn(C(C)C)c4)ccn3)C(=O)[C@H]3CC[C@H](OC(=O)N4CCN(C)CC4)CC3)CC2)cc1C [Compound 1.05, trans-4-((4-(1-Isopropyl-1H-pyrazol-4-yl)pyridin-2-yl)(((trans)-4-(6-methoxy-5-methylpyridin-3-yl)cyclohexyl)methyl)carbamoyl) cyclohexyl 4-methylpiperazine-1-carboxylate] was run?
Answer: 50 to 1000 nM

Question: Which EC50 does the source give for COc1ccc(C23CCC(CN(C(=O)N4CCC(OC(=O)N5CC(O)C5)CC4)c4cc(-c5cnn(C(C)C)c5)ccn4)(CC2)CC3)cc1C [Compound 27, 1-((4-(1-Isopropyl-1H-pyrazol-4-yl)pyridin-2-yl)((4-(4-methoxy-3-methylphenyl)bicyclo[2.2.2]octan-1-yl)methyl)carbamoyl)piperidin-4-yl 3-hydroxyazetidine-1-carboxylate] here?
Answer: ≤ 50 nM

Question: With COCCN(C)C(=O)O[C@H]1CC[C@H](C(=O)N(CC23CCC(c4ccc(OC)c(C)c4)(CC2)CC3)c2cc(-c3cnn(C(C)C)c3)ccn2)CC1 [Compound 4.56, 4-((4-(1-Isopropyl-1H-pyrazol-4-yl)pyridin-2-yl) ((4-(4-methoxy-3-methylphenyl)bicyclo [2.2.2]octan-1-yl)methyl)carbamoyl)cyclohexyl (2-methoxyethyl)(methyl) trans-carbamate] as the molecule, how does the EC50 read?
Answer: ≤ 50 nM

Question: How did the EC50 turn out when COc1ccc([C@H]2CC[C@H](CN(c3cc(-c4coc(C(C)C)n4)ccn3)C(=O)[C@H]3CC[C@H](OC(=O)NCC(C)(C)O)CC3)CC2)cc1C [Compound 2.26, trans-4-((4-(2-Isopropyloxazol-4-yl)pyridin-2-yl)(((trans)-4-(4-methoxy-3-methylphenyl)cyclohexyl)methyl)carbamoyl)cyclohexyl (2-hydroxy-2-methylpropyl)carbamate] was run?
Answer: ≤ 50 nM

Question: How did the EC50 turn out when COc1ccc(C23CCC(CN(c4cccc(-c5cnn(C6(C)CCC6)c5)n4)C(=O)[C@H]4CC[C@H](OC(=O)N5CC(O)C5)CC4)(CC2)CC3)cc1C [Compound 25.24, 4-(((4-(4-Methoxy-3-methylphenyl)bicyclo[2.2.2]octan-1-yl)methyl)(6-(1-(1-methylcyclobutyl)-1H-pyrazol-4-y)pyridin-2-yl)carbamoyl)cyclohexyl trans-3-hydroxyazetidine-1-carboxylate] was run?
Answer: ≤ 50 nM

Question: Which EC50 does the source give for COc1ccc([C@H]2CC[C@H](CN(c3cc(-c4coc(C5CC5)n4)ccn3)C(=O)[C@H]3CC[C@H](OC(=O)NCC(C)(C)CO)CC3)CC2)nc1C [Compound 1, trans-4-((4-(2-Cyclopropyloxazol-4-yl)pyridin-2-yl)((trans-4-(5-methoxy-6-methylpyridin-2-yl)cyclohexyl)methyl)carbamoyl)cyclohexyl (3-hydroxy-2,2-dimethylpropyl)carbamate] here?
Answer: ≤ 50 nM

Question: COc1ccc(C23CCC(CN(c4cc(-c5cnn(C(C)C)c5)ncn4)C(=O)[C@H]4CC[C@H](OC(=O)N5CC(CO)C5)CC4)(CC2)CC3)cc1C [Compound 23.20, 4-((6-(1-Isopropyl-1H-pyrazol-4-yl)pyrimidin-4-yl)((4-(4-methoxy-3-methylphenyl)bi-cyclo[2.2.2]octan-1-yl)methyl)carbamoyl)(trans-cyclohexyl) 3-(hydroxymethyl)azetidine-1-carboxylate] was tested. Which EC50 did it give?
Answer: ≤ 50 nM

Question: With COc1ccc(C23CCC(CN(c4cc(-c5cnn(C(C)C)c5)ccn4)C(=O)[C@H]4CC[C@H](OC(=O)N5CC(CCO)C5)CC4)(CC2)CC3)cc1C [Compound 4.43, 4-((4-(1-Isopropyl-1H-pyrazol-4-yl)pyridin-2-yl) ((4-(4-methoxy-3-methylphenyl)bicyclo [2.2.2]octan-1-yl)methyl)carbamoyl)cyclohexyl trans-3-(2-hydroxyethyl) azetidine-1-carboxylate] as the molecule, how does the EC50 read?
Answer: ≤ 50 nM

Question: COc1ncc([C@H]2CC[C@H](CN(c3cc(-c4cnn(C(C)C)c4)ccn3)C(=O)[C@H]3CC[C@H](OC(=O)N4CCN(C)CC4)CC3)CC2)cc1Cl [Compound 1.09, trans-4-((((trans)-4-(5-Chloro-6-methoxypyridin-3-yl)cyclohexyl)methyl)(4-(1-isopropyl-1H-pyrazol-4-yl)pyridin-2-yl)carbamoyl)cyclohexyl 4-methylpiperazine-1-carboxylate] was tested. Which EC50 did it give?
Answer: ≤ 50 nM

Question: COc1ccc(C23CCC(CN(c4ccc(F)c(-c5cnn(C(C)C)c5)c4)C(=O)[C@H]4CC[C@H](OC(=O)N5CC(CO)C5)CC4)(CC2)CC3)cc1C [Compound 25.09, 4-((4-Fluoro-3-(1-isopropyl-1H-pyrazol-4-yl)phenyl)((4-(4-methoxy-3-methylphenyl)bicyclo[2.2.2]octan-1-yl)methyl)carbamoyl)cyclohexyl trans-3-(hydroxymethyl)azetidine-1-carboxylate] was tested. Which EC50 did it give?
Answer: ≤ 50 nM
